Measured values reported in patent publication US20180252712A1, “RECEPTOR FOR NOROVIRUS AND USES THEREOF” (priority 2017, published 2018).

How the values were obtained:
MNoV^CW3 = assay: MNoV binding assay to BV2 cells (bound genomes by qPCR); assay type: cell-based, murine norovirus; conditions: wild type or CD300lf-mutant BV2 cells, 1 μg/ml kifunensine
Experimental: MNoV^CW3 quantitiatve PCR (qPCR) was performed as previously described. Briefly, 5 μl of extracted viral RNA was used for cDNA synthesis using random hexamers and ImProm Reverse Transcriptase (Promega, Madison, Wis.) in 20 μl total volume. TaqMan qPCR was performed in triplicate on each sample and standard with forward primer SEQ ID NO:20 (5′ […] 3′), reverse primer SEQ ID NO:21 (5′ GCGCTGCGCCATCACTC 3′), and probe.
MNoV^CW3 binding to BV2 cells was performed for 1 hour at 4° C. in 0.5 ml complete growth media. sCD300lf was incubated with MNoV^CW3 for 30 minutes at room temperature prior to addition to cells. α-CD300lf was incubated with cells for 30 minutes at 4° C. prior to the addition of MNoV^CW3. BV2 cells were used at final concentration of 2×10^6 cells/ml, and MNoV^CW3 was used at a final concentration of 1.6×10^9 copies/ml (2.5×10^6 PFU/ml). Cells were centrifuged at 500 g for 5 min at 4° C. to remove unbound virus. Cells were washed with four 1.0 ml washes with PBS containing 2.5% FBS and 2 mM EDTA. The cell pellet was resuspended in 100 μl PBS, and RNA was extracted with the ZR Viral RNA kit (Zymo Research) according to manufacturer instructions. qPCR was performed as described above. Binding experiments were done in triplicate in each of at least three independent experiments. A condition containing virus but no cells was used to determine assay background.
(§1) To determine the effect of glycans on MNoV binding, parental BV2 cells, ΔCD300lf BV2 clone 1 cells complemented with an empty lentivirus, and ΔCD300lf BV2 clone 1 cells complemented with CD300lf were cultured in the presence of 1 μg/ml of kifunensine (Santa Cruz Biotechnology) for at least 48 hours prior to use. Kifunensine activity was determined by staining cells with FITC-conjugated wheat germ agglutinin (WGA) at 1 μg/ml final concentration (Sigma Aldrich). The reduction in glycosylation was determined by comparing the mean fluorescence intensity (MFI) with and without kifunensine treatment. WGA binding was determined at the time of each binding assay.

BV2 cells = assay: Kifunensine treatment, WGA-FITC staining of cell surface carbohydrates; assay type: cell-based, mouse; conditions: 1 μg/ml kifunensine for at least 48 hours
Experimental: as §1

## O=C1N[C@@H]2[C@@H](O)[C@@H](O)[C@H](O)[C@@H](CO)N2C1=O [kifunensine]
MNoV^CW3
  MNoV^CW3 binding to kifunensine treated cells: did not significantly alter MNoV^CW3 binding
BV2 cells
  Cell surface carbohydrates (WGA-FITC binding, MFI): significantly reduced cell surface carbohydrates
